{
  "source": "patent US6974835B2",
  "about": "“Methods for decreasing cell proliferation based on (3r,4r)-Δ8-tetrahydrocannabinol-11-oic acids” (Indevus Pharmaceuticals, Inc., priority 2000, dated 2005)",
  "key": {"[1]": {"test_system": "tumor cells", "test": "Stereospecificity of inhibition of cell proliferation (D-isomer vs L-isomer)", "format": "cell-based", "conditions": "25 μM dose, FIG. 2, p<0.001"}, "[2]": {"test_system": "C6 cells", "test": "Lipid incorporation assay", "format": "cell-based", "conditions": "25 μM, 14C-labeled arachidonic acid, 48 hours; for neutral lipids, increase above basal levels: FIG. 3"}, "[3]": {"test_system": "U87", "test": "48 hour MTT assay, U87", "conditions": "U87 (Brain), 25 μM"}, "[4]": {"test_system": "J82", "test": "48 hour MTT assay, J82", "conditions": "J82 (Bladder), 25 μM"}, "[5]": {"test_system": "PC3", "test": "48 hour MTT assay, PC3", "conditions": "PC3 (Prostate), 25 μM"}, "[6]": {"test_system": "U373", "test": "48 hour MTT assay, U373", "conditions": "U373 (Brain), 25 μM"}, "[7]": {"test_system": "Du145", "test": "48 hour MTT assay, Du145", "conditions": "Du145 (Prostate), 25 μM"}, "[8]": {"test_system": "HS578T", "test": "48 hour MTT assay, HS578T", "conditions": "HS578T (Breast), 25 μM"}, "[9]": {"test_system": "human cell lines derived from a variety of cancer types (brain, breast, bladder, lung, and prostate)", "test": "48 hour MTT assay, mean over the human cancer cell lines", "conditions": "25 μM, mean of the ten lines of Table 1"}, "[10]": {"test_system": "C6 glioma cells", "test": "Microscopy of treated cells (cell size, refractile bodies, electron microscopy)"}, "[11]": {"test_system": "C6 glioma cells", "test": "Co-incubation with a CB1 antagonist, cell proliferation", "format": "cell-based", "conditions": "3.2 μM of a specific CB1 antagonist"}, "[12]": {"test_system": "WI38 cells", "test": "Phase microscopy for refractile bodies, WI38", "format": "cell-based, rat", "conditions": "48 hours, same dosage"}, "[13]": {"test_system": "Protein kinase C (PKC)", "test": "Protein kinase C (PKC) assay", "format": "cell-based", "conditions": "C6 cells, 25 μM, for one hour", "description": "Protein kinase C (PKC) assay. Cells were transferred into MEM media (0.5% serum) and cultured overnight. The next day, cells were treated with either DMSO or 25 μM ajulemic acid for the specified incubation time, after which the plates were trypsinized. 5×10^6 trypsinized cells were assayed for PKC activity using a kit (Calbiochem, cat. no. 53984)."}, "[14]": {"test_system": "human glioma cell line U87 injected subcutaneously in nude mice", "test": "In vivo subcutaneous model", "conditions": "0.1 mg/kg thrice weekly, FIG. 4", "description": "In vivo subcutaneous model. 10^6 U87 cells were injected into the right flank muscle of male nu/nu BALBc mice (Charles River). Two days after inoculation, the mice received either 0.1 mg/kg ajulemic acid in 0.05 ml of safflower oil or 0.05 ml safflower oil by oral administration. Thereafter, identical dosings were performed on each Monday, Wednesday, and Friday. When visible tumors appeared, the size of the tumors were estimated by averaging the values of two roughly perpendicular diameters measurements. Visible tumors were measured on the days of drug administration."}, "[15]": {"test_system": "C6 glioma cells", "test": "Viability by trypan blue exclusion"}},
  "data": [
    {"smiles": "CCCCCCC(C)(C)c1cc(O)c2c(c1)OC(C)(C)[C@@H]1CC=C(C(=O)O)C[C@@H]21", "note": "(single isomer, unassigned) [D-isomer of ajulemic acid]", "values": [
      {"measurement": "potency of D-isomer compared to the L-isomer of ajulemic acid", "setting": "[1]", "result": "marked decrease in the potency"}
    ]},
    {"smiles": "CCCCCc1cc(O)c2c(c1)OC(C)(C)[C@@H]1CC=C(C(=O)O)C[C@@H]21", "note": "[THC-11-oic acid]", "values": [
      {"measurement": "neutral lipids, increase above basal levels", "setting": "[2]", "result": "significant increase above basal levels was only noted for ajulemic acid"},
      {"measurement": "Percent inhibition of human cancer cell line growth", "setting": "[3]", "result": "5 ± 1", "unit": "%"},
      {"measurement": "Percent inhibition of human cancer cell line growth", "setting": "[4]", "result": "1 ± 1", "unit": "%"},
      {"measurement": "Percent inhibition of human cancer cell line growth", "setting": "[5]", "result": "1 ± 1", "unit": "%"},
      {"measurement": "Percent inhibition of human cancer cell line growth", "setting": "[6]", "result": 0, "unit": "%"},
      {"measurement": "Percent inhibition of human cancer cell line growth", "setting": "[7]", "result": "7 ± 3", "unit": "%"},
      {"measurement": "Percent inhibition of human cancer cell line growth", "setting": "[8]", "result": "2 ± 1", "unit": "%"},
      {"measurement": "inhibition levels (mean±SD) over the human cell lines", "setting": "[9]", "result": "13.1±18.5", "unit": "%"},
      {"measurement": "refractile bodies noted (in words)", "setting": "[10]; C6 glioma cells, 25 μM, 48 hours", "result": "no refractile bodies were noted"}
    ]},
    {"smiles": "CCCCCCC(C)(C)c1cc(O)c2c(c1)OC(C)(C)[C@@H]1CC=C(C(=O)O)C[C@@H]21", "note": "[ajulemic acid, 1′,1′-dimethylheptyl-Δ^8-THC-11-oic acid]", "values": [
      {"measurement": "change in potency on co-incubation with CB1 antagonist", "setting": "[11]", "result": "slight potentiation"},
      {"measurement": "refractile bodies noted (in words)", "setting": "[12]", "result": "no refractile bodies were noted"},
      {"measurement": "content of tri- and di-glyceride versus controls", "setting": "[2]", "result": "over three-fold greater than in controls"},
      {"measurement": "neutral lipids, increase above basal levels", "setting": "[2]", "result": "significant increase above basal levels"},
      {"measurement": "PKC activity versus control", "setting": "[13]", "result": "approximately two-fold above that of control"},
      {"measurement": "appearance and size of tumors (in words)", "setting": "[14]", "result": "delay in both the appearance and size of tumors"},
      {"measurement": "viability rate", "setting": "[15]", "result": "> 95", "unit": "%"},
      {"measurement": "cell size", "setting": "[10]; after 48 hours of exposure", "result": "marked increase in cell size"},
      {"measurement": "appearance under electron microscopy", "setting": "[10]; treated cells", "result": "neither apoptotic nor necrotic"}
    ]},
    {"smiles": "CCCCCc1cc(O)c2c(c1)OC(C)(C)[C@@H]1CCC(C)=C[C@@H]21", "note": "[Δ^9-THC, tetrahydrocannabinol]", "values": [
      {"measurement": "change in potency on co-incubation with CB1 antagonist", "setting": "[11]", "result": 150, "unit": "%"},
      {"measurement": "neutral lipids, increase above basal levels", "setting": "[2]", "result": "significant increase above basal levels was only noted for ajulemic acid"}
    ]}
  ]
}
